In US8618179B2, “Composition comprising a pesticide and an alkoxylate of 2-propylheptylamine” (BASF SE, priority 2010, dated 2013):

Legend:
Brachiarea multica = test: Field trial, glyphosate SL formulation with amine alkoxylate against weed; assay type: in vivo; conditions: glyphosate-isopropylammonium SL spray solution with amine alkoxylate, visual estimate
Experimental: To this end, in each case 1.0 l of spray solution (see table 1) was sprayed per plot using a manual sprayer. 1.0 l of the spray solution contained 7.5 ml of an aqueous formulation of dissolved glyphosate-isopropyl-ammonium salt. To prepare this formulation, 100 ml of amine alkoxylate of example 2 were previously made up to 1.0 l with 46% strength glyphosate-isopropylammonium salt solution. Two, five and seven days after the application, the destruction of the weed was estimated visually in percent. Rain fell repeatedly in the days between application and assessment.

Daphnia magna = test: Water toxicity on Daphnia magna, OECD Guideline 202 part 1; assay type: in vivo; conditions: 48 h
[1] = test system: winter oilseed rape (cultivar Remy); test: Greenhouse test, glyphosate SL formulation on oilseed rape; assay type: in vivo; conditions: Table 2; 140 g of glyphosate/ha and 300 g of amine alkoxylate/ha
Experimental: A concentrated formulation comprising glyphosate isopropylammonium in solution in water and amine alkoxylate from Example 2 was diluted with deionized water and applied at a water application rate of 375 l/ha (140 g of glyphosate/ha and 300 g of amine alkoxylate/ha). The temperatures in the experimental period, which lasted for 3 to 4 weeks, were between 18-35° C. During this time, the experimental plants received optimum watering, with nutrients being supplied via the water used for watering. The herbicidal activity was evaluated by awarding scores to the treated plants in comparison to the untreated control plants (Table 2). […] Conversely, 0% activity means that there were no differences between treated and untreated plants. […] The application rate was 140 g of glyphosate/ha and 300 g of amine alkoxylate/ha.

[2] = Storage stability of glyphosate formulation with amine alkoxylate; assay type: physicochemical; conditions: temperatures of from 5 to +55° C.
Text: Also, the formulation was rainfast.

[3] = test system: Ambrosia artemisiifolia (AMBEL); test: Greenhouse test, imazamox SL formulation on Ambrosia; assay type: in vivo; conditions: scored after 14 days; 10 g of imazamox/ha and 400 g of amine alkoxylate/ha
Experimental: (§1) The herbicidal activity was evaluated by awarding scores to the treated plants in comparison to the untreated control plants (Table 2). The evaluation scale ranges from 0% to 100% activity. 100% activity means the complete death at least of those parts of the plant that are above ground. Conversely, 0% activity means that there were no differences between treated and untreated plants.
(§2) The application rate was 10 g of imazamox/ha and 400 g of amine alkoxylate/ha. For comparison, a tallow fatty amine ethoxylate with 12 ethylene oxide units was used (liquid, approximately 100% content, molar mass approximately 730 g/mol (calculated from OH number), available commercially as Lutensol® FA12K from BASF SE).

[4] = test system: Chenopodium album (CHEAL); test: Greenhouse test, imazamox SL formulation on Chenopodium; assay type: in vivo; conditions: scored after 14 days; 10 g of imazamox/ha and 400 g of amine alkoxylate/ha
Experimental: as §1, §2

[5] = Gelling upon addition of amine alkoxylate to glyphosate solution; assay type: physicochemical; conditions: addition at 20° C.

Substance: 2-propylheptylamine ethoxylate [2-PHamine-7 EO]
- Proportion [%] of weed destroyed (Brachiarea multica; 2 days after application): 40%
- Proportion [%] of weed destroyed (Brachiarea multica; 5 days after application): 87.5%
- Proportion [%] of weed destroyed (Brachiarea multica; 7 days after application): 90%
- EC50 (Daphnia magna): 60 µg/mL
- Activity [%] after 14 days [1]: 75%
- Activity [%] after 21 days [1]: 86%
- Storage stability of the formulation [2]: storage-stable for at least two weeks
- Activity [%] AMBEL [3]: 80%
- Activity [%] CHEAL [4]: 93%
- Gelling upon addition to the glyphosate solution [5]: no gelling observed
